These results are taken from PMC5635798, “Alteration to Dopaminergic Synapses Following Exposure to Perfluorooctane Sulfonate (PFOS), in Vitro and in Vivo” (Medical Sciences, 2016).

The IC50 is the concentration needed to halve the response being measured. A high value points to weaker potency in that assay.

This assay deals with T1, vesicular monoamine transporter 2 (VMAT2) (Homo sapiens, UniProt Q05940).
T1 construct: gene SLC18A2; human VMAT2 stably expressed in HEK293 cells (HEK-hVMAT2), pcDNA3.1
Put plainly: inhibition of vesicular 3H-dopamine uptake in HEK-hVMAT2 cell fractions. It counts as biochemical.

T1 sequence (Q05940 whole entry): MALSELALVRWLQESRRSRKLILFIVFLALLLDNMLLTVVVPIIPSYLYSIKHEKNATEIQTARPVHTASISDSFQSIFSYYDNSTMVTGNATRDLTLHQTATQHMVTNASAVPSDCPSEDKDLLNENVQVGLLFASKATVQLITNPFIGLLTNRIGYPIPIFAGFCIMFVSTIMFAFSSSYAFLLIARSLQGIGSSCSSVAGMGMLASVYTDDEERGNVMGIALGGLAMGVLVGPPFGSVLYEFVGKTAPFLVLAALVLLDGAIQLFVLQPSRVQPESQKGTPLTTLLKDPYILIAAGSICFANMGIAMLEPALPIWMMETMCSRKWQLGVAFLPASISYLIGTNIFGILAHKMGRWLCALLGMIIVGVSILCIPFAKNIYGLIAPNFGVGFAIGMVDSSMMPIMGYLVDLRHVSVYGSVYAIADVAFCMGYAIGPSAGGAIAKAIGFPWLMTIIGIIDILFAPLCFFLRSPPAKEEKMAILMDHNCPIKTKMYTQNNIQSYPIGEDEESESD

Take `O=S(=O)(O)C(F)(F)C(F)(F)C(F)(F)C(F)(F)C(F)(F)C(F)(F)C(F)(F)C(F)(F)F` [PFOS]: the IC50 worked out at 4.56 µM.
